Measured values published in PMC4411102 (PLoS ONE, 2015).

What was measured:
CD4 binding to gp120 = test: Competitive ELISA, CD4 binding to gp120; parameters: species or system HIV-1; conditions: gp120 pre-incubated with HbAHP-25 30 min, then CD4 1 hr
Experimental: 96 well microtiter plate was coated with soluble gp120 (1μg/well) from HIV-1 BaL and HIV-1 IIIB strains for 16 hrs at 4°C. […] Anti-CD4 monoclonal antibody (1:200) was added to the wells, followed by HRP-labeled goat anti-human secondary antibody (1:10000). Rest of the protocol followed was same as described above.

HeLa cells = test: Flow cytometry, HeLa cells (no gp120); format: binding; conditions: 35.7μM HbAHP-25, 1 hr at RT
Experimental: (§2) Cells were washed with same buffer twice and binding was evaluated using flow cytometer (BD Accuri C6, USA). The data was acquired and analyzed on BD Accuri software.

[1] = Circular dichroism spectroscopy; format: physicochemical; conditions: 37°C
Experimental: CD spectra was performed on a JASCO CD Spectrometer (J-815) at 37 °C using a 5.0-nm bandwidth, 0.1-cm path length, 5-s response time, and a 10-nm/min scanning speed.

gp120 of HIV-1 IIIB = test: Binding ELISA, gp120 of HIV-1 IIIB; conditions: ELISA
Experimental: (§1) After blocking with 3% bovine serum albumin (BSA) in PBS for 30 min, 100 μl of gp120 (100ng/well) in PBS-0.05% BSA was added to each well and incubated for 2 hrs at 37°C. After three washings with PBS-Tween-20 (PBS-T), cells were incubated with anti-gp120 antibody at 1:200 dilution and then with horse radish peroxidase-(HRP) conjugated secondary goat anti-human antibody (1:10000 dilution) for 1 hr at 37°C. This was followed by incubation with O-phenylenediamine for 20 min. The absorbance was measured at 492 nm on a microplate ELISA reader (ELx-800, Bio-Tek Instruments, USA). Background values obtained in the wells without HbAHP-25 were subtracted from the absorbance values from wells having all other reagents.
Supplementary file pone.0124839.s001.tif: S1 Fig Binding of designed peptides to gp120. Peptides that were designed in silico were evaluated for their binding to gp120 of HIV-1 IIIB. Peptides were coated on 96 well microtiter plate for 16 hrs and then incubated with 500ng of gp120 for 2 hrs at 37°C. This was followed by addition of anti-gp120 antibody, and absorbance was read at 492nm. Background absorbance was subtracted from the wells where peptides were not coated. […] (TIF) Click here for additional data file.

HIV-1 VSV = format: cell-based, HIV-1 pseudotyped with VSV-G
[2] = tested on: vaginal/endocervical epithelial cells
HIV-1 IIIB [3] = test: Anti-HIV activity in biological fluids, HIV-1 IIIB, luciferase; format: cell-based; conditions: TZM-bl luciferase
TZM-bl cells = test: Flow cytometry, TZM-bl cells (no gp120); format: binding; conditions: 35.7μM HbAHP-25, 1 hr at RT
Experimental: as §2

HIV-1 NL4-3 (wt) = format: cell-based
[4] = tested on: PBMCs, VK2/E6E7, TZM-bl, and CEM-GFP cells; test: MTT cytotoxicity assay; format: cell-based, human
Experimental: Briefly, PBMCs, VK2/E6E7, TZM-bl, and CEM-GFP cells (5x10^4 for 24 hr assay and 2x10^4 cells for 120 hr assay) were seeded in a 96-well microtiter plate 24 hrs prior to the treatment with peptides. Cells were treated with different concentrations of peptides (4.4–1142.4μM). MTT (10 μl of 1mg/ml) was added to each well, followed by addition of 100 μl of DMSO (Sigma-Aldrich) after 3 hrs. The absorbance was measured at 540nm using ELISA reader (ELX-800, BioTek Instruments Ltd, USA.). Untreated cells were used as medium control and 0.1% Triton X-100 treated cells served as a positive control.

gp120 = gp120 (Human immunodeficiency virus type 1 group M subtype B, UniProt P04578); test: Surface plasmon resonance; format: binding, HIV-1
Experimental: Briefly, gp120 (20 μg/ml) was immobilized onto carboxymethylated dextran (CM5) surface based sensor chip by amine coupling method according to the manufacturer’s instructions. […] 10mM NaOH and 0.5% SDS were used to regenerate the sensor chip surface after each experimental cycle. The binding response in resonance units (RU) was recorded as a function of time. Non-specific binding was subtracted from the control flow cells without gp120. Binding kinetics was determined with BIA evaluation 4.1 software (BIAcore) using 1:1 Langmuir binding model.

[5] = tested on: HL2/3 cells expressing gp120; test: Flow cytometry, HL2/3 cells expressing gp120; format: binding; conditions: 35.7μM HbAHP-25, 1 hr at RT
Experimental: as §2

gp120 of HIV-1 BaL = test: Binding ELISA, gp120 of HIV-1 BaL
Experimental: as §1

HIV-1 IIIB [6] = test: Anti-HIV activity, p24 antigen assay in H9 cells; format: cell-based; parameters: key to Anti-HIV activity: +: moderate; ++: significant; NA: No activity; conditions: for Anti-HIV activity (in words): 0.1 MoI HIV-1 IIIB pre-incubated with peptide, H9 cells, p24 on day 4
Experimental: Supplementary file pone.0124839.s002.tif: S2 Fig Anti-HIV activity of 3 designed peptides. Anti HIV activity of three peptides was determined using H9 cells. H9 cells were infected for 4 hrs with 0.1 MoI of HIV-1 IIIB pre-incubated with various concentrations of peptides. Peptides were added post infection as well. Supernatant was collected on day 4 post infection, and p24 antigen assay was performed. […] (TIF) Click here for additional data file.
Supplementary file pone.0124839.s003.tif: S3 Fig Anti-HIV activity of peptide analogues of peptide 1. After modifying the peptide 1, we performed anti-HIV assay as earlier. HIV-1 IIIB was pre-incubated with peptide analogues for 1 hr and then added to H9 cells for 4 hrs. Levels of p24 levels were determined on day 4 post infection. […] (TIF) Click here for additional data file.

HIV-1 NL4-3 = test: GFP expression in CEM-GFP cells; conditions: HbAHP-25 prior to infection, day 5 post infection
Experimental: Supernatants were collected and accumulated p24 levels were determined by sandwich ELISA as per the manufacturer’s protocol (XpressBio, Thurmont, MD, USA). AZT (10nM) was used as positive control for inhibition. For GFP analysis, CEM-GFP cells were observed under fluorescent microscope (Carl Zeiss, Oberkochen, Germany) and photographed using a digital camera (DSC–S75; Sony, Tokyo, Japan). IC50 was defined as the concentration that inhibited 50% of viral activity. The selectivity index (SI) was evaluated as the ratio of CC50 to IC50 (SI = CC50/ IC50).

HIV-1 IIIB and HIV-1 BaL = test: Stability in seminal plasma and vaginal fluid (residual anti-HIV activity); format: in vitro ADME; conditions: 35.7 μM, up to 72 hrs
HIV-1 IIIB and ADA5 = test: Time-of-addition assay in TZM-bl cells; conditions: 71.40 μM
Experimental: Luciferase activity was measured at 48 hrs post treatment using Luminometer (ELx-800, Bio-Tek Instruments, USA). VRC01 (0.1 μM) antibody was used as a positive control.

[7] = 2.2–71.40 μM coated, gp120 100ng/well

CC(C)C[C@H](NC(=O)[C@H](CC(C)C)NC(=O)[C@H](CCCCN)NC(=O)[C@H](CS)NC(=O)[C@H](CC(N)=O)NC(=O)[C@@H](NC(=O)[C@@H]1CCCN1C(=O)[C@H](CC(=O)O)NC(=O)[C@@H](NC(=O)[C@H](CCCNC(=N)N)NC(=O)[C@H](CC(C)C)NC(=O)[C@H](CCCCN)NC(=O)[C@H](Cc1c[nH]cn1)NC(=O)[C@H](C)N)C(C)C)C(C)C)C(=O)N[C@@H](CO)C(=O)N[C@@H](Cc1c[nH]cn1)C(=O)N[C@@H](CS)C(=O)N[C@@H](CC(C)C)C(=O)N[C@@H](CC(C)C)C(=O)N[C@H](C(=O)N[C@H](C(=O)N[C@@H](CC(C)C)C(=O)N[C@@H](C)C(=O)N[C@@H](CCCNC(=N)N)C(=O)N[C@@H](Cc1c[nH]cn1)C(N)=O)[C@@H](C)O)C(C)C [HbAHP-25]
Inhibition of CD4 binding to gp120 (CD4 binding to gp120): significant reduction in the absorbance | Shift in fluorescent peak in FL-1A channel (HeLa cells): < 3% | α-helical content ([1]; 10 μM, PBS pH 7 / sodium acetate pH 4, from ellipticity at 222 nm): about 50% | Structure at low pH ([1]; pH 4 versus pH 7, 10 μM): no significant change in its structure at low pH | Binding to recombinant gp120 of HIV-1 IIIB (gp120 of HIV-1 IIIB; [7]): binds to recombinant gp120 of both HIV-1 IIIB and HIV-1 BaL in a dose dependent manner | Concentration with significant binding to gp120 (gp120 of HIV-1 IIIB; HIV-1 IIIB gp120): above 8.9 μM | Effect on lactobacilli (lactobacilli): not inhibitory to lactobacilli | Entry of HIV-1 VSV (HIV-1 VSV): able to enter the cells within one hour even in the presence of HbAHP-25 | Infectivity of HIV-1 VSV (HIV-1 VSV): not affected | Disruption of tight junctions [2]: does not cause disruptions of tight junctions | Induction of inflammation [2]: does not induce any inflammation | Change in anti-HIV activity with seminal plasma (HIV-1 IIIB [3]; human seminal plasma): did not observe any significant change | Change in anti-HIV activity with vaginal fluid (HIV-1 IIIB [3]; human vaginal fluid): did not observe any significant change | Shift in fluorescent peak in FL-1A channel (TZM-bl cells): < 3% | Infectivity of HIV-1 (wt) (HIV-1 NL4-3 (wt)): inhibited | CC50 fold higher than IC50 ([4]; CC50 versus IC50): 5 fold | Cytotoxicity in words ([4]; MTT): not cytotoxic | Dose without adverse effect on viability, relative to IC50 ([4]; dose higher than its IC50): 3 fold | Rmax (gp120; SPR): 99.7 RU | Chi2 (gp120; fit to 1:1 Langmuir model): 14.7 | Shift in fluorescent peak in FL-1A channel [5]: 60.10 ± 4.3% | Binding to recombinant gp120 of HIV-1 BaL (gp120 of HIV-1 BaL; [7]): binds to recombinant gp120 of both HIV-1 IIIB and HIV-1 BaL in a dose dependent manner | Concentration with significant binding to gp120 (gp120 of HIV-1 BaL; HIV-1 BaL gp120): above 8.9 μM | Anti-HIV activity (in words) (HIV-1 IIIB [6]; listed as analogue-1b): showed better anti-HIV activity than analogue-1a and analogue of peptide-3 | Anti-HIV activity (in words) (HIV-1 IIIB [6]; listed as peptide analogue-1b): significantly enhanced | Anti-HIV activity (HIV-1 IIIB [6]; class symbols of Table 1, HIV-1 IIIB in H9 cells, p24 (S2, S3 Fig)): ++ | GFP expression (HIV-1 NL4-3): reduced | Loss in anti-HIV activity after pre-incubation with seminal plasma (HIV-1 IIIB and HIV-1 BaL; human seminal plasma): did not observe any significant loss | Loss in anti-HIV activity after pre-incubation with vaginal fluid (HIV-1 IIIB and HIV-1 BaL; human vaginal fluid): did not observe any significant loss | Anti-HIV activity, during infection (HIV-1 IIIB and ADA5; During: peptide and virus added simultaneously): still significant | Anti-HIV activity, post infection (HIV-1 IIIB and ADA5; Post: peptide 6 hrs after infection): significantly lesser than that shown by the first two groups | Luciferase activity, pre-incubation (HIV-1 IIIB and ADA5; Pre: virus pre-incubated with peptide): significantly lesser luciferase activity | Inhibition, all steps (HIV-1 IIIB and ADA5; peptide at all three steps): Maximum inhibition
